# US20060223837A1 (priority 2005, published 2006)
# Assays:
# human VR1 [1] = biological target: T1, human VR1 (Homo sapiens, UniProt Q8NER1); assay: Human VR1 functional assay (FLIPR intracellular Ca2+); type: cell-based; settings: for inhibition at 1 µM / inhibition at 5 µM / h % I (5 μM): inhibition of capsaicin response; for inhibition at 1 µM: read-out: h % I (1 μM); for inhibition at 5 µM: read-out: h % I (5 μM); for IC50: antagonism of capsaicin-induced Ca2+ increase, read-out: h IC50; for Emax at 6 µM: agonist response, read-out: % Response Relative to EC80 of Capsaicin (6 μM)
# T1 construct: expressed in transfected cells; host or cells: HEK293
# T1 sequence (Q8NER1 whole entry): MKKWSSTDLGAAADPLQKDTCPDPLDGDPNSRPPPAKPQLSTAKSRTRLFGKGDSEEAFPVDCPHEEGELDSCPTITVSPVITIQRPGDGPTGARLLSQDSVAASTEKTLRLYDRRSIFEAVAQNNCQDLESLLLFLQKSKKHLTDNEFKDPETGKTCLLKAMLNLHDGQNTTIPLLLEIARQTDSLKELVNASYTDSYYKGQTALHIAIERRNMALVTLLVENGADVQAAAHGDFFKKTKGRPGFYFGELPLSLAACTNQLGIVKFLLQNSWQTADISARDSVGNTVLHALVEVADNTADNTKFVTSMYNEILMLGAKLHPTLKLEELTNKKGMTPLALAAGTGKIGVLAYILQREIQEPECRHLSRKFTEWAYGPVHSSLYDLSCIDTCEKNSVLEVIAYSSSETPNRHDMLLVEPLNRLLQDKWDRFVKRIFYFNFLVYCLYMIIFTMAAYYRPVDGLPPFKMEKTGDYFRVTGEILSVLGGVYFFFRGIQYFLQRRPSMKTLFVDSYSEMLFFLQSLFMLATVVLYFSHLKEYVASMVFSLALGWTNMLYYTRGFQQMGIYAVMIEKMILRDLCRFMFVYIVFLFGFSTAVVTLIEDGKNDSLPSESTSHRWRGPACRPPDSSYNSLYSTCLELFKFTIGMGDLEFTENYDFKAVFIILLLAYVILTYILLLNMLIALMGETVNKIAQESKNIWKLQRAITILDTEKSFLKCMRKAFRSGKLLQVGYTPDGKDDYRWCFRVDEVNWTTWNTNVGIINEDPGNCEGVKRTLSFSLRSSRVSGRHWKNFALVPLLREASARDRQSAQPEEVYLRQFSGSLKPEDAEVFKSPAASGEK
# Summary of the method: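 Read-out was Ca2+-dye fluorescence by FLIPR: compounds at varying concentrations were added to dye-loaded human VR1 HEK293 cells and monitored 5 min before capsaicin addition ([…], approx. EC80). Dose-response data, averaged over four wells, gave EC50 or IC50.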
# human VR1 [2] = biological target: T1, human VR1; assay: Human VR1 [3H]RTX binding assay; settings: for Ki: [3H]RTX binding, HEK293 membranes; for h Binding % I (1 μM) / inhibition at 1 µM: inhibition of [3H]RTX binding at 1 μM; for inhibition at 1 µM: read-out: h Binding % I (1 μM)
# Summary of the method: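 Inhibition of [3H]resiniferatoxin binding measured on HEK293-hVR1 membranes over 60 min at 37 C, pH 7.4 HEPES buffer containing BSA. Pellet radioactivity counted; 200 nM cold RTX gave nonspecific binding. % inhibition computed and Ki derived from duplicate measurements.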
Structure (SMILES),inhibition at 1 µM (human VR1 [1]) [%],Ki (human VR1 [2]) [nM],inhibition at 5 µM (human VR1 [1]) [%],IC50 (human VR1 [1]) [nM],also measured
CC(C)(C)c1ccc(CCC(=O)Nc2cc(F)c(-c3ccccn3)c(F)c2)cc1 [Cpd 175],75,142,,,
CC(C)(C)c1ccc(CCC(=O)Nc2ccc(-c3ccccn3)nc2)cc1 [Cpd 176],99,66,22,,
Cc1cc(NC(=O)CCc2ccc(C(C)(C)C)cc2)ccc1-c1cccnc1 [Cpd 179],81,67,100,266,
Cc1cc(NC(=O)CCc2ccc(C(C)(C)C)cc2)ccc1-c1ccncc1 [Cpd 180],91,42,,,Emax at 6 µM (human VR1 [1]): 96%
CC(C)(C)c1ccc(CCC(=O)Nc2ccc(-c3ccncc3)c(F)c2)cc1 [Cpd 182],80,55,,,Emax at 6 µM (human VR1 [1]): 97%
Cn1ccnc1-c1ccc(NC(=O)CCc2ccc(C(C)(C)C)cc2)cc1 [Cpd 189],,,,,h % I (5 μM) (human VR1 [1]): 63%; h Binding % I (1 μM) (human VR1 [2]): 4%
Cn1cnc(-c2ccc(NC(=O)CCc3ccc(C(C)(C)C)cc3)cc2)c1 [Cpd 190],,,,,h % I (5 μM) (human VR1 [1]): 98%; h Binding % I (1 μM) (human VR1 [2]): 56%
CC(C)(C)c1ccc(CCC(=O)Nc2ccc(C3CN=CO3)cc2)cc1 (stereo not drawn) [Cpd 194],,,,,h % I (5 μM) (human VR1 [1]): 94%; h Binding % I (1 μM) (human VR1 [2]): 45%
Cc1nc(-c2ccc(NC(=O)CCc3ccc(C(C)(C)C)cc3)cc2)cs1 [Cpd 195],,,,,h % I (5 μM) (human VR1 [1]): 20%; h Binding % I (1 μM) (human VR1 [2]): 75%
CC(C)(C)c1ccc(CCC(=O)Nc2ccc(-c3csnn3)cc2)cc1 [Cpd 197],,,,0.283,h Binding % I (1 μM) (human VR1 [2]): 62%
CC(C)(C)c1ccc(CCC(=O)Nc2ccc(-c3nn[nH]n3)cc2)cc1 [Cpd 199],,,,,h % I (5 μM) (human VR1 [1]): 19%; h Binding % I (1 μM) (human VR1 [2]): 3%
CC1=NN(c2ccc(NC(=O)CCc3ccc(C(C)(C)C)cc3)cc2)C(=O)C1 [Cpd 201],,,,,h % I (5 μM) (human VR1 [1]): 57%; h Binding % I (1 μM) (human VR1 [2]): 1%
"CC(C)(C)c1ccc(CCC(=O)Nc2cnc(-n3ccnc3)c(C(F)(F)F)c2)cc1 [Cpd 202, 3-(4-tert-Butyl-phenyl)-N-(6-imidazol-1-yl-5-trifluoromethyl-pyridin-3-yl)-propionamide]",,212,100,30.1,
"Cc1cc(NC(=O)CCc2ccc(C(F)(F)F)cc2)cnc1-n1cnc(Cl)c1Cl [Cpd 203, N-[6-(4,5-Dichloro-imidazol-1-yl)-5-methyl-pyridin-3-yl]-3-(4-trifluoromethyl-phenyl)-propionamide]",99,34,100,35.2,
"Cc1cn(-c2ccc(NC(=O)CCc3ccc(C(F)(F)F)cc3)cc2C(F)(F)F)cn1 [Cpd 204, N-[4-(4-Methyl-imidazol-1-yl)-3-trifluoromethyl-phenyl]-3-(4-trifluoromethyl-phenyl)-propionamide]",100,31.9,,37,
"Cc1cn(-c2ccc(NC(=O)/C=C/c3ccc(S(=O)(=O)C(F)(F)F)cc3)cc2C(F)(F)F)cn1 [Cpd 205, trans-N-[4-(4-Methyl-imidazol-1-yl)-3-trifluoromethyl-phenyl]-3-(4-trifluoromethanesulfonyl-phenyl)-acrylamide]",100,44.4,,38,
O=C(CCc1ccc(C(F)(F)F)cc1)Nc1ccc(-c2cccc(O)c2)c(C(F)(F)F)c1 [Cpd 206],,64.6,100,39.4,
O=C(CCc1ccc(C(F)(F)F)cc1)Nc1ccc(-n2ccnc2)c(C(F)(F)F)c1 [Cpd 207],95,47.8,100,40.2,
Cc1cn(-c2ccc(NC(=O)/C=C/c3ccc(SC(F)(F)F)cc3)cc2C(F)(F)F)cn1 [Cpd 208],100,88.7,,41,
"O=C(CCc1ccc(C(F)(F)F)cc1)Nc1cnc(-c2cccc(O)c2)c(C(F)(F)F)c1 [Cpd 210, N-[6-(3-Hydroxy-phenyl)-5-trifluoromethyl-pyridin-3-yl]-3-(4-trifluoromethyl-phenyl)-propionamide]",,54.5,100,57,
Cc1cc(NC(=O)CCc2ccc(C(C)(C)C)cc2)cnc1-n1ccnc1 [Cpd 214],,536,91,73.2,

# Continued, in another order:
inhibition at 1 µM (human VR1 [1]) [%],Ki (human VR1 [2]) [nM],inhibition at 5 µM (human VR1 [1]) [%],IC50 (human VR1 [1]) [nM],Structure (SMILES),also measured
,,,0.972,Cn1cncc1-c1ccc(NC(=O)CCc2ccc(C(C)(C)C)cc2)cc1 [Cpd 191],inhibition at 1 µM (human VR1 [2]): 19%
,,,3.82,CC(C)(C)c1ccc(CCC(=O)Nc2ccc(-n3cncn3)cc2)cc1 [Cpd 198],inhibition at 1 µM (human VR1 [2]): 37%
,22.2,99,60,CC(C)(C)c1ccc(CCC(=O)Nc2ccc(-n3cnc(Cl)c3Cl)cc2)cc1 [Cpd 211],
101,5.9,100,62.7,"CC(C)(C)c1ccc(CCC(=O)Nc2ccc(-n3cnc(Cl)c3Cl)c(C(F)(F)F)c2)cc1 [Cpd 212, 3-(4-tert-Butyl-phenyl)-N-[4-(4,5-dichloro-imidazol-1-yl)-3-trifluoromethyl-phenyl]-propionamide]",
